Values quoted from earlier work as cited in US20050014837A1, “Method for treating ocular hypertension and glaucoma” (priority 2001, published 2005).

Details: 0.01% solution; 5, 10 and 20 μL

For `O=C1OC2(c3ccc(O)cc3Oc3cc(O)ccc32)c2ccccc21` [fluorescein], the “initial concentration in meniscus relative to the concentration of the administered fluorescein” value is given as 36-45%.
